Laboratory results: patent US9770421B2, “Uses for idebenone and related benzoquinones in metabolic disorders and other PPAR α/γ related diseases and conditions” (INDANIO BIOSCIENCE INC., priority 2013, dated 2017)
Entries after “also recorded” stand apart in the source; their conditions may differ.

Assays:
PPARα = target: T1, PPARα (Homo sapiens, UniProt Q07869); test: HEK293 cell culture luciferase reporter assay, hPPARα
T1 sequence (Q07869 178-468): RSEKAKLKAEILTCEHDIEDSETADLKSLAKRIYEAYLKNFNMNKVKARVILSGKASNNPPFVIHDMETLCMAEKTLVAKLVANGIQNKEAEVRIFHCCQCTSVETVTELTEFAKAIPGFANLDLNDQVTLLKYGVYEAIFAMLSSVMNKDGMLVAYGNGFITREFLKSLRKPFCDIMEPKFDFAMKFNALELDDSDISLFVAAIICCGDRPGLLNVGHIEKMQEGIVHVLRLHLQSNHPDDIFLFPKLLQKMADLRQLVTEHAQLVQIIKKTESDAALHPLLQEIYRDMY

3T3-L1 cells = test: Murine 3T3-L1 adipocyte differentiation assay (Oil Red O); assay type: cell-based; conditions: with dexamethasone, isobutylmethylxanthine and insulin; Oil Red O staining
Experimental: The cell line was originally obtained from ATCC and 3T3-L1 cells were maintained in the fibroblasts stage in DMEM (Gibco: 11995-065), 10% FBS (Gibco: 26140-079) and Pen-Strep solution (Gibco: 15140-122). Cells were grown in 75 cm^2 flasks and sub-cultured just prior to confluence. Medium was removed and washed twice with PBS. For cell differentiation 2 day post-confluent monolayers were incubated for 2 days in DMEM containing: 10% fetal bovine serum (FBS), 100 μg/ml IBMX (from a 500× stock in 0.15 M KOH, prepared fresh), 390 ng/ml dexamethasone (from a 1000× stock in EtOH) and 5 μg/ml insulin (from a 1000× stock in 0.1 M HCl). After 2 days media was replaced with DMEM+ 10% FBS and 5 μg insulin only and cells were maintained for another 2 days. Media was then replaced by DMEM+ 10% FBS for 5-6 days until differentiation was complete. After differentiation media was removed and cells were washed twice with PBS and then fixed in 4% PFA. Lipids were stained with Oil O red.

C57Bl/6 db/db mice = test: db/db mouse study (NAFLD features); assay type: in vivo; conditions: for Decrease in liver weight in comparison to vehicle treated mice: 3 weeks
Experimental: Db/db study: Forty male C57Bl/6 db/db mice (called B6.BKS(D)-Lepr db/J) were ordered from Jackson Laboratories (#000697) at 7 weeks of age. Mice were housed individually with free access to food (2016 Teklad Global 16% Protein Rodent Diet) and water on a 14 hour light/dark cycle (6 a.m. to 8 p.m. light). […] Food was exchanged on a daily bases. Harlan corn cob bedding was provided and was changed every week or as needed. Following a 1 week acclimation, 32 mice were chosen based on desired body weight range. Remaining mice were euthanized. Mice were randomized by body weight into four treatment groups (n=8) by body weight. Dosing occurred for 21 days. Mice were euthanized by CO2 euthanasia and livers were fixed in neutral buffered formalin (NBF) for 24 h, followed by a one day fixation in 30% Sucrose and 10% Sucrose. Oil O Red staining was performed through the Pathology Research Program at the University Health Network in Toronto [46]. [table] 100 mg of db/db livers were homogenized in RIPA buffer and protein concentration was quantified using a BCA protein assay kit (Cell signalling #7780) followed by measurement of ‘Thiobarbituric Acid Reactive Substances’ (TBARS) using a TBARS assay kit (Cayman Chemicals #10009055). Total RNA was extracted from 100 mg of db/db livers using RNA STAT-60 (Tel-Test, Inc.), treated with DNase I (RNase-free, Roche), and reverse transcribed into cDNA with random hexamers using the High Capacity Reverse transcription system (Applied Biosystems, ABI). Primers used are shown below and were validated as previously described. Real-time QPCR reactions were performed on an ABI 7900 in 384-well plates containing 12.5 ng cDNA, 150 nM of each primer, and 5 μl 2×SYBR Green PCR Master Mix (ABI) in a 10 μl total volume. Relative mRNA levels were calculated using the comparative Ct method normalized to cyclophilin mRNA.

[1] = target: T2, affinity-tagged PPARγ expressed in zebrafish (Homo sapiens, UniProt P37231); test: Affinity purification of PPARγ from LT fish and LC-MRM of bound drugs; assay type: binding; conditions: 1 μM rosiglitazone or 4 μM idebenone; purification in 1M NaCl
T2 construct: pLT PPARα (aa 178-468) and pLT PPAR γ (aa 188-477) lines; expressed in transfected cells; host or cells: transgenic zebrafish embryos (heat-induced ligand-trap line)
T2 sequence (P37231 188-477 isoform P37231-2): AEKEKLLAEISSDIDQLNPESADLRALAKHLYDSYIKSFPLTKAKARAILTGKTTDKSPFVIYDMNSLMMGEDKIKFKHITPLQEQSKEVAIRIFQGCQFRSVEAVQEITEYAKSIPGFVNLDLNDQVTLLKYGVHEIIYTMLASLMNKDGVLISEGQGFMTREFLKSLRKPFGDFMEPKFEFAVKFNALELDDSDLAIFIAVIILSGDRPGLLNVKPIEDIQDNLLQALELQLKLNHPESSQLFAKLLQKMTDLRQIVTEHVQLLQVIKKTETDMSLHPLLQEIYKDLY
Experimental: Following purification, bound small molecules were extracted using 2:1 chloroform/methanol and subjected to LC-MRM (liquid chromatogaphy—multiple reaction monitoring) mass spectrometry to identify co-purifying small molecules.
1 dpf zebrafish embryos were heat induced for 1 hr in pre-heated embryo water 37° C. (+/− drugs). […] Purification steps were performed at 4° C. Frozen embryos were homogenized in lysis buffer (50 mM Hepes ph7.5, 1M NaCl, 0.1% Triton X-100, 1 mM DTT, 1 mM EDTA, 1 ppm BHT, Complete protease inhibitor cocktail tablet (Roche, 1 tablet/50 ml buffer)) at a ratio of 4 ml lysis buffer/gram embryos. After 20 min incubation on ice, the lysate was centrifuged at 14000×g for 15 mins. […] The beads were then transferred to a 2 ml-gravity disposable column and washed 3 times with 6 column of Last Wash Buffer (800 mM ammonium acetate pH7.5, 1 ppm BHT). The beads were then transferred to a glass vial and the samples prepared for mass spectrometry.
The chloroform phase was collected and dried under a stream of nitrogen gas. The dried residue was reconstituted in 10% acetonitrile prior to LC-MRM. […]
The purified PPARγ or control purifications were then extracted with 2:1 chlorofonailmethanol, and the solvent phase analyzed by mass spectrometry.

`COC1=C(OC)C(=O)C(CCCCCCCCCCO)=C(C)C1=O` [Idebenone, 2-(10-hydroxydecyl)-5,6-dimethoxy-3-methyl-2,5-cyclohexadiene-1,4-dione] was tested, and the EC50 (PPARα) was 3 µM, the “Maximum activation level versus full agonist, PPARα” value (PPARα; HEK293, full agonist GW7647) was “significantly lower than those obtained using the full agonists” and the “Lipid accumulation / adipocyte differentiation” value (3T3-L1 cells) was “does not stimulate adipocyte differentiation and activity; also recorded: no accumulation of lipid”. The “Histological NAFLD features of liver” value (C57Bl/6 db/db mice; 3 weeks in food) was “reversed these histological NAFLD”, the “Decrease in liver weight in comparison to vehicle treated mice” value (C57Bl/6 db/db mice; 900 mpk in food) was 3% and the “Decrease in liver weight in comparison to vehicle treated mice” value (C57Bl/6 db/db mice; 1800 mpk in food) was 6.5%. The “Liver ADFP mRNA expression (QPCR)” value (C57Bl/6 db/db mice; 21 days) was “down regulated”, the “Liver PLIN4 mRNA expression (QPCR)” value (C57Bl/6 db/db mice; 21 days) was “down regulated” and the “Liver lipid content (Oil Red O staining)” value (C57Bl/6 db/db mice; 21 days, 900/1800 mpk idebenone, 10 mpk rosiglitazone) was “significant dose-dependent decrease in fat; also recorded: significant dose dependent decrease in fat”. For the same compound, the “Liver lipid peroxides (TBARS)” value (C57Bl/6 db/db mice; liver homogenates, 21 days) was “reduced” and the “Co-purification with PPARγ from LT fish (LC-MRM)” value [1] was “yielded idebenone in the affinity purification eluate; also recorded: co-purify with affinity-tagged PPARγ”.
